Data from publication PMC8123395, “Aggregation and Its Influence on the Bioactivities of a Novel Antimicrobial Peptide, Temporin-PF, and Its Analogues” (International Journal of Molecular Sciences, 2021).
Values after ≈ are worked out from the molar mass of the structure shown. Like-named read-outs stand apart in the source and are kept apart here. Non-standard residues stand in square brackets, D forms with d. Residues, ends and D or L forms follow the SMILES beside them. No end group written: not given here.

What was measured:
[1] = Circular dichroism, helix content by BeStSel; format: physicochemical; conditions: CD, room temperature, BeStSel analysis; for Helix Content % DPPC: 50 μM peptide in 3 mM DPPC SUVs (erythrocyte membrane mimic); for Helix Content % DPPG/DPPE: 50 μM peptide in 3 mM DPPG/DPPE (88:12) SUVs (bacterial membrane mimic); for Helix Content % 50% TFE: 50 μM peptide in 50% TFE/10 mM NH4AC, three scans averaged
Description: Figure 8 CD spectra of TPF and the analogs (50 μM) prepared in 10 mM NH4AC, 50% TFE/10 mM NH4AC, 3 mM DPPG/DPPE (88:12) SUVs, and 3 mM DPPC SUVs. The spectra were averaged over three consecutive scans, and the solvent CD signal was subtracted.
The determination of the secondary structure of peptides was conducted using a JASCO J-815 CD Spectropolarimeter (JASCO Inc., Tokyo, Japan) as described in the previous study. Then, 50 μM of each peptide sample was prepared in the aqueous 10 mM ammonium acetate (NH4Ac; Sigma-Aldrich, Gillingham, UK) buffer, 50% (v/v) 2,2,2-trifluoroethanol (TFE; Sigma-Aldrich, Gillingham, UK), and 3 mM DPPG:DPPE (88:12) and DPPC small unilamellar liposomes/vesicles (SUVs) that were used to mimic the bacterial and mammalian erythrocyte cell membranes, respectively. The liposome was hydrated in deionized water and then sonicated for 15 min with an interval 30 s in an ice bath for generating SUVs. Samples were loaded in a 1-mm thickness quartz cuvette and analyzed at room temperature with the following parameters: scan range of 190–250 nm, scanning speed of […], 1 nm bandwidth, and 0.5 nm data pitch. The spectra were obtained by averaging data from three scans. The CD spectra were analyzed by BeStSel (http://bestsel.elte.hu/index.php, accessed on 16 May 2020) for the determination of secondary structure content.

[2] = system: methicillin-resistant S. aureus (MRSA) (NCTC 12493); format: cell-based
Description: (§1) The minimum inhibitory concentration (MIC) and minimum bactericidal concentration (MBC) of peptides against the selected microorganisms were determined using the broth-dilution method, as described in the previous study. […] were used in the assay: Gram-positive bacteria Staphylococcus aureus (NCTC 10788), Enterococcus faecalis (NCTC 12697), and methicillin-resistant S. aureus (MRSA) (NCTC 12493); Gram-negative bacteria Escherichia coli (NCTC 10418), Pseudomonas aeruginosa (ATCC 27853), and Klebsiella pneumoniae (ATCC 43816). All the strains were cultured in Mueller Hinton Broth (MHB), pH 7.4 (Oxiod, Basingstoke, UK). Each peptide was tested at the final concentration from 128 to 1 µM in two-fold dilution. Norfloxacin was applied as the positive control.

[3] = system: Enterococcus faecalis (NCTC 12697); format: cell-based
Description: as §1

[4] = system: Staphylococcus aureus (NCTC 10788); format: cell-based
Description: as §1

[5] = system: Escherichia coli (NCTC 10418); format: cell-based
Description: as §1

[6] = system: Klebsiella pneumoniae (ATCC 43816); format: cell-based
Description: as §1

[7] = system: Pseudomonas aeruginosa (ATCC 27853); format: cell-based
Description: as §1

S. aureus mature biofilm = format: cell-based
Description: (§2) MBIC and MBEC assays were performed as previously described with minor modifications. For the MBIC assay, a suspension of broth diluted bacteria culture (5 × 10^5 CFU/mL) was incubated with the peptide solutions at 37 °C for 24 h. For MBEC assay, 100 μL inoculum culture was seeded to a 96-well-flat-bottom plate and incubated at 37 °C for 48 h to obtain the mature biofilm. Afterwards, the plate was washed by sterile phosphate-buffered saline (PBS; Sigma-Aldrich, Gillingham, UK) twice and treated with a series peptide solution at 37 °C for 24 h. Then, all the plates were washed with PBS and stained by 100 μL 0.1% crystal violet solution (Sigma-Aldrich, Gillingham, UK), and further dissolved by 30% acetic acid (Sigma-Aldrich, Gillingham, UK). The absorbance of each well was recorded by Synergy HT plate reader (Biotech, Minneapolis, MN, USA) at 595 nm.

MRSA mature biofilm = format: cell-based
Description: as §2

S. aureus biofilm = format: cell-based; conditions: 24 h
Description: as §2

MRSA biofilm = format: cell-based; conditions: 24 h
Description: as §2

[8] = RP-HPLC retention order of mixed peptides (overall hydrophobicity); format: physicochemical; conditions: peptides mixed in equal ratio and subjected to RP-HPLC; Supplementary Figure S4
Description: All peptides were chemically synthesized and purified by RP-HPLC. They were further mixed with an equal ratio and subjected to RP-HPLC. […] Subsequently, all peptides (1 mg/mL) were dissolved in a series of widely used culture media (Figure 2).
N-terminal Phe of temporin was believed to participate in the packaging of “head-tail” oligomerization. […] Furthermore, Trp/D-Trp substitution carried out on des-Phe1 TPF enhanced the peptide aggregation. […] It may be related to the decrease of the helical content; however, it could also be caused by the change of aggregation effects. Previous studies have shown that AMPs with strong antimicrobial activity are present as monomers in an aqueous solution and aggregate on the membrane to disrupt the bacterial cell membrane. […] It has been proposed that some aggregation effects of AMPs could limit the interaction of the peptide with its target, thereby reducing the antibacterial efficacy. In the previous study, the zipper-like motif is associated with the bioactivities as well as the assembly in the LPS micelles, which was considered to arise from hydrophobic interactions mainly. However, the overall hydrophobicity of Trp/D-Trp substituted analogs is less than that of des-Phe1 TPF, as estimated by RP-HPLC analysis. We hypothesize that the enhanced assembly seen for Trp/D-Trp substituted analogs might be related to the increased content of aromatic residues, because it could promote the strength of π stacking or cation-π type interaction. However, the true relation has not been fully clarified so far, and the capability of aromatic moieties to promote aggregation could also be affected by the hydrophobicity, position, and the neighboring side chains in their three-dimensional conformation.

[9] = Preliminary observation of solubility / hydrogel formation in PBS; format: physicochemical; conditions: peptide 10 mg/mL in PBS
Description: After the identification of TPF, the chemical synthesis of TPF was performed successfully. […] Therefore, we synthesized the des-Phe1 TPF to investigate the correlation between oligomerize effect and bioactivities. […] Therefore, we further substituted Phe with Trp and D-Trp to reveal the relationship between the oligomerization effect and the zipper motif and the influence on bioactivities (Table 1). The correct synthesis of peptides had been checked by MALDI-TOF mass spectrometry (Supplementary Figure S6) and synthetic yields were calculated (Supplementary Figure S7).

horse erythrocytes = assay: Hemolysis test; format: cell-based; conditions: 2% horse erythrocyte suspension; peptide 128 to 1 µM; comparison among the four peptides
Description: Figure 9 Hemolytic activity of TPF and the analog against horse red blood cell. The percentage of hemolysis was calculated with the absorbance at 570 nm, compared with PBS-treated red blood cells. The error bar represents SD of five replicates.
The hemolytic activity of each peptide was measured by incubating a range of final peptide concentrations from 128 to 1 µM in a two-fold dilution in a 2% suspension of the horse erythrocytes, as described in a previous study. The absorbance of hemoglobin released from red blood cells was detected at 570 nm. The percentage of hemolysis was calculated by the comparison to the 1% Triton X-100 treated red blood cells.

[10] = Observation of aggregation: turbidity (absorbance at 600 nm) in media and salt solutions; format: physicochemical; conditions: absorbance 600 nm, three replicates
Description: Figure 3 The absorbance of TPF and the analogs prepared in (a) a series of culture media, including PBS, RPMI1640, RPMI1640 with 10% FBS, TSB, and MHB; 0.25, 0.5, and 1 M of (b) Na2HPO4, (c) CaCl2, and (d) MgCl2 solutions. Peptide solutions were prepared from 1 mg/mL, and the wavelength was set as 600 nm. The error bar represents the standard deviation (SD) with three replicates.
The method was followed the previous study with modifications. The purified peptides were prepared at 10 mg/mL in water and subsequently diluted with different solutions, including PBS, RPMI1640, RPMI1640 with 10% FBS, TSB, MHB, Na2HPO4 (0.25, 0.5, and 1 M), CaCl2 (0.25, 0.5, and 1 M), and MgCl2 (0.25, 0.5, and 1 M), in a 96-well plate to achieve the final concentration of 1 mg/mL. The turbidity of each well was detected using the absorbance at 600 nm by a plate reader. The peptides dissolved in water were applied as negative control.

[11] = MRSA NCTC 12493, broth dilution in MHB pH 7.4, peptide 128 to 1 µM
[12] = E. faecalis NCTC 12697, broth dilution in MHB pH 7.4, peptide 128 to 1 µM
[13] = S. aureus NCTC 10788, broth dilution in MHB pH 7.4, peptide 128 to 1 µM two-fold dilution
[14] = E. coli NCTC 10418, broth dilution in MHB pH 7.4, peptide 128 to 1 µM
[15] = K. pneumoniae ATCC 43816, broth dilution in MHB pH 7.4, peptide 128 to 1 µM
[16] = P. aeruginosa ATCC 27853, broth dilution in MHB pH 7.4, peptide 128 to 1 µM

Compound	Helix Content % DPPC [1]	Helix Content % DPPG/DPPE [1]	Helix Content % 50% TFE [1]	MBC ([2]; NCTC 12493, pH 7.4)	MIC ([2]; NCTC 12493, pH 7.4)	MBC ([3]; NCTC 12697, pH 7.4)	MIC ([3]; NCTC 12697, pH 7.4)	MBC ([4]; NCTC 10788, pH 7.4)	MIC ([4]; NCTC 10788, pH 7.4)	MBC ([5]; NCTC 10418, pH 7.4)	MIC ([5]; NCTC 10418, pH 7.4)	MBC ([6]; ATCC 43816, pH 7.4)	MIC ([6]; ATCC 43816, pH 7.4)	MBC ([7]; ATCC 27853, pH 7.4)	MIC ([7]; ATCC 27853, pH 7.4)	MBEC (S. aureus mature biofilm; mature biofilm, 48 h)	MBEC (MRSA mature biofilm; mature biofilm, 48 h)	MBIC (S. aureus biofilm; biofilm)	MBIC (MRSA biofilm; biofilm)	order of retention time (RP-HPLC, used as estimate of overall hydrophobicity) [8]	also measured
CC[C@H](C)[C@H](NC(=O)[C@H](CC(C)C)NC(=O)[C@@H]1CCCN1C(=O)[C@@H](N)CC(C)C)C(=O)N[C@@H](C)C(=O)NCC(=O)N[C@@H](CC(C)C)C(=O)N[C@H](Cc1c[nH]c2ccccc12)C(=O)NCC(=O)N[C@@H](CCCCN)C(=O)N[C@H](C(=O)N[C@H](Cc1c[nH]c2ccccc12)C(N)=O)[C@@H](C)CC [dW-des-Phe1 TPF] (H-LPLIAGL[dW]GKI[dW]-NH2; N-terminus assumed)	8.3%	0.5%	3.0%	> 128 µM	> 128 µM	> 128 µM	> 128 µM	64 µM (≈ 87.4 µg/mL)	64 µM (≈ 87.4 µg/mL)	> 128 µM	> 128 µM	> 128 µM	> 128 µM	> 128 µM	> 128 µM	>128/>128 µM	>128/>128 µM	>128/>128 µM	>128/>128 µM	TPF> des-Phe1 TPF> W-des-Phe1 TPF> dW-des-Phe1 TPF	–
FLPLIAGLFGKIF-NH2 [TPF]	–	–	–	–	–	–	–	–	–	–	–	–	–	–	–	–	–	–	–	–	solubility in PBS [9]: significantly decreased; MBC [2, 11]: 4 µM; MIC [2, 11]: 4 µM; MBC [3, 12]: 16 µM; MIC [3, 12]: 16 µM; MBC [4, 13]: 32 µM; MIC [4, 13]: 4 µM; MBC [5, 14]: > 128 µM; MIC [5, 14]: > 128 µM; MBC [6, 15]: > 128 µM; MIC [6, 15]: > 128 µM; MBC [7, 16]: > 128 µM; MIC [7, 16]: > 128 µM; MBEC (S. aureus mature biofilm; S. aureus, 48 h mature biofilm treated with peptide 37 °C, 24 h, crystal violet, absorbance 595 nm): 32 µM; MBEC (MRSA mature biofilm; MRSA, 48 h mature biofilm treated with peptide 37 °C, 24 h, crystal violet, absorbance 595 nm): 16 µM; MBIC (S. aureus biofilm; S. aureus, 5 × 10^5 CFU/mL with peptide, 37 °C, crystal violet, absorbance 595 nm): 4 µM; MBIC (MRSA biofilm; MRSA, 5 × 10^5 CFU/mL with peptide, 37 °C, crystal violet, absorbance 595 nm): 4 µM; hemolytic activity (in words) (horse erythrocytes): strongest hemhemolytic activity
LPLIAGLWGKIW-NH2 [W-des-Phe1 TPF]	10.1%	26.9%	27.7%	128 µM	128 µM	128 µM	128 µM	32 µM	32 µM	128 µM	128 µM	128 µM	128 µM	> 128 µM	> 128 µM	> 128 µM	128/>128 µM	64 µM	128/>128 µM	TPF> des-Phe1 TPF> W-des-Phe1 TPF> dW-des-Phe1 TPF	turbidity in culture media ([10]; peptide 1 mg/mL diluted from 10 mg/mL in water, PBS, RPMI1640, RPMI1640 with 10% FBS, TSB, MHB): increased outstandingly; salting-out effect in Na2HPO4 solutions ([10]; peptide 1 mg/mL, 0.25, 0.5 and 1 M Na2HPO4): strongest salting-out effect
